In PubChem BioAssay (NCI):
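1) Cells in 96-well plates. 2) Compound, 48 h, 5 concentrations. 3) Linear interpolation between surrounding doses. 4) Unreached endpoint = highest concentration. TGI is the concentration that stops growth completely.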

Tests used:
Assay in all cases: inhibition of tumour cell growth, NCI panel, 48 h
MDA-MB-231 breast = tested on: MDA-MB-231 breast
HT29 colon = tested on: HT29 colon
NCI-H460 lung = tested on: NCI-H460 lung
MCF7 breast = tested on: MCF7 breast
MOLT-4 leukemia = tested on: MOLT-4 leukemia
SF-268 CNS = tested on: SF-268 CNS
BT-549 breast = tested on: BT-549 breast
786-0 renal = tested on: 786-0 renal
LOX IMVI melanoma = tested on: LOX IMVI melanoma
OVCAR-3 ovarian = tested on: OVCAR-3 ovarian
HCT-116 colon = tested on: HCT-116 colon
SK-MEL-5 melanoma = tested on: SK-MEL-5 melanoma
NCI-H226 lung = tested on: NCI-H226 lung
SNB-19 CNS = tested on: SNB-19 CNS
COLO 205 colon = tested on: COLO 205 colon
M14 melanoma = tested on: M14 melanoma
UACC-257 melanoma = tested on: UACC-257 melanoma
NCI-H522 lung = tested on: NCI-H522 lung
KM12 colon = tested on: KM12 colon

Structure (SMILES)	TGI (MDA-MB-231 breast)	TGI (HT29 colon)	TGI (NCI-H460 lung)	TGI (MCF7 breast)	TGI (MOLT-4 leukemia)	TGI (SF-268 CNS)	TGI (BT-549 breast)	TGI (786-0 renal)	TGI (LOX IMVI melanoma)	TGI (OVCAR-3 ovarian)	TGI (HCT-116 colon)	TGI (SK-MEL-5 melanoma)	TGI (NCI-H226 lung)	TGI (SNB-19 CNS)	TGI (COLO 205 colon)	TGI (M14 melanoma)	TGI (UACC-257 melanoma)	TGI (NCI-H522 lung)	TGI (KM12 colon)
COC(=O)c1ccc(NCC2=CC(=O)C=CC2=O)cc1O	34.7 µM	38.6 µM	43.4 µM	76.3 µM	> 100 µM	> 100 µM	25.1 µM	31.4 µM	37.5 µM	24.7 µM	33.8 µM	80.1 µM	44.7 µM	48.3 µM	31.4 µM	50.6 µM	30.6 µM		
Cc1ccc(C(=O)C2C=C(c3ccc(C)cc3)SC3C=CCC32)cc1 (stereo not given)	43.8 µM	43.1 µM	37.3 µM		44.9 µM		37.3 µM	38.3 µM	39.5 µM	31.8 µM	27.8 µM	29.2 µM	66.1 µM	> 100 µM	38 µM	36.4 µM	54.3 µM	29.6 µM	30.3 µM
CCOP(=O)(OCC)/C(=C\n1ccc(=O)[nH]c1=S)C(=O)OC	> 100 µM	> 100 µM	> 100 µM	> 100 µM	> 100 µM	> 100 µM		> 100 µM	> 100 µM		> 100 µM	> 100 µM	> 100 µM		> 100 µM	> 100 µM	> 100 µM	> 100 µM	> 100 µM
Nc1nncc2n[nH]nc12	> 100 µM	> 100 µM	> 100 µM	> 100 µM	91 µM	> 100 µM	> 100 µM	> 100 µM		> 100 µM	> 100 µM	30.7 µM	> 100 µM	> 100 µM	> 100 µM	> 100 µM	> 100 µM		> 100 µM
CC1CN=C(N(C(=O)Nc2ccc(Cl)cc2)c2cccc(Cl)c2)S1 (stereo not given)	> 100 µM	> 100 µM	> 100 µM	> 100 µM		> 100 µM		> 100 µM	> 100 µM	> 100 µM	> 100 µM	33.7 µM		> 100 µM	40.1 µM	> 100 µM	> 100 µM		> 100 µM
CC(C)(C)n1[nH]c(=O)n(C(C)(C)C)c1=O	> 100 µM		> 100 µM	> 100 µM	> 100 µM	> 100 µM	> 100 µM	> 100 µM	> 100 µM	> 100 µM	> 100 µM	> 100 µM		> 100 µM	> 100 µM	> 100 µM	> 100 µM		> 100 µM
COc1ccc(/C(=N/OCCCC(=O)O)c2cccs2)cc1	> 100 µM	> 100 µM	> 100 µM	> 100 µM	> 100 µM	> 100 µM	> 100 µM	> 100 µM	> 100 µM	> 100 µM	> 100 µM	> 100 µM	> 100 µM	> 100 µM	> 100 µM		> 100 µM		> 100 µM
